Laboratory results: patent publication US10836725B2, “Modulators of the integrated stress pathway” (Calico Life Sciences LLC, priority 2016, dated 2020)

System: ATF4 luciferase reporter
Assay: ATF4-Luc assay in HEK293T cells carrying the ATF4 luciferase reporter (in vitro model of VWMD)
Type: cell-based, human
Details: Homo sapiens, HEK-293T, 1 μg/mL tunicamycin, 7 hours, luminescence (One Glo)
Method: In order to test exemplary compounds of the invention in a cellular context, a stable VWMD cell line was first constructed. The ATF4 reporter was prepared by fusing the human full-length ATF4 5′-UTR (NCBI Accession No. BC022088.2) in front of the firefly luciferase (FLuc) coding sequence lacking the initiator methionine as described in Sidrauski et al (eLife 2013). The construct was used to produce recombinant retroviruses using standard methods and the resulting viral supernatant was used to transduce HEK293T cells, which were then subsequently selected with puromycin to generate a stable cell line.
HEK293T cells carrying the ATF4 luciferase reporter were plated on polylysine coated 384-well plates (Greiner Bio-one) at 30,000 cells per well. Cells were treated the next day with 1 μg/mL tunicamycin and 200 nM of a compound of Formula (I) for 7 hours. Luminescence was measured using One Glo (Promega) as specified by the manufacturer. Cells were maintained in DMEM with L-glutamine supplemented with 10% heat-inactivated FBS (Gibco) and Antibiotic-Antimycotic solution (Gibco).
Table 2 below summarizes the EC50 data obtained using the ATF4-Luc assay for exemplary compounds of the invention.

Structure (SMILES)	EC50 [nM]
O=C(COc1ccc(Cl)c(F)c1)NC12CCC(C(=O)NCc3cccc(C(F)(F)F)c3)(CC1)C(O)C2 (centres unmarked) [Compound 135, 4-[2-(4-chloro-3-fluorophenoxy)acetamido]-2-hydroxy-N-{[3-(trifluoromethyl)phenyl]methyl}bicyclo[2.2.2]octane-1-carboxamide]	< 250
O=C(COc1ccc(Cl)c(F)c1)NC12CCC(C(=O)NCc3ccc(OC(F)(F)F)cc3)(CC1)C(O)C2 (centres unmarked) [Compound 133, 4-[2-(4-chloro-3-fluorophenoxy)acetamido]-2-hydroxy-N-{[4-(trifluoromethoxy)phenyl]methyl}bicyclo[2.2.2]octane-1-carboxamide]	< 250
O=C(COc1ccc(Cl)c(F)c1)NC12CC(C(=O)NCCc3ccncc3)(C1)C2 [Compound 234, 3-[2-(4-chloro-3-fluorophenoxy)acetamido]-N-[2-(pyridin-4-yl)ethyl]bicyclo[1.1.1]pentane-1-carboxamide]	> 2000
O=C(COc1ccc(Cl)c(F)c1)NC12CC(C(=O)NCc3cnoc3)(C1)C2 [Compound 170, 3-[2-(4-chloro-3-fluorophenoxy)acetamido]-N-[(1,2-oxazol-4-yl)methyl]bicyclo[1.1.1]pentane-1-carboxamide]	> 2000
O=C(COc1ccc(Cl)c(F)c1)NC12CCC(C(=O)NCc3ccc(C(F)(F)F)cn3)(CC1)C(O)C2 (centres unmarked) [Compound 106]	< 250
CCc1nccc(CNC(=O)C23CC(NC(=O)COc4ccc(Cl)c(F)c4)(C2)C3)n1 [Compound 217, 3-[2-(4-chloro-3-fluorophenoxy)acetamido]-N-[(2-ethylpyrimidin-4-yl)methyl]bicyclo[1.1.1]pentane-1-carboxamide]	> 2000
COc1cc(F)cc(CNC(=O)C23CC(NC(=O)COc4ccc(Cl)c(F)c4)(C2)C3)c1 [Compound 209, 3-[2-(4-chloro-3-fluorophenoxy)acetamido]-N-[(3-fluoro-5-methoxyphenyl)methyl]bicyclo[1.1.1]pentane-1-carboxamide]	> 2000
COc1cccc(CNC(=O)C23CC(NC(=O)COc4ccc(Cl)c(F)c4)(C2)C3)c1 [Compound 216, 3-[2-(4-chloro-3-fluorophenoxy)acetamido]-N-[(3-methoxyphenyl)methyl]bicyclo[1.1.1]pentane-1-carboxamide]	> 2000
CN(Cc1ccc(C(F)(F)F)cc1)C(=O)C12CCC(NC(=O)COc3ccc(Cl)c(F)c3)(CC1)CC2O (centres unmarked) [Compound 145, 4-[2-(4-chloro-3-fluorophenoxy)acetamido]-2-hydroxy-N-methyl-N-{[4-(trifluoromethyl)phenyl]methyl}bicyclo[2.2.2]octane-1-carboxamide]	< 250
O=C(COc1ccc(Cl)c(F)c1)NC12CC(C(=O)NCc3ccc(SC(F)(F)F)cc3)(C1)C2 [Compound 246, 3-[2-(4-chloro-3-fluorophenoxy)acetamido]-N-({4-[(trifluoromethyl)sulfanyl]phenyl}methyl)bicyclo[1.1.1]pentane-1-carboxamide]	> 2000
Cc1ccc(CNC(=O)C23CCC(NC(=O)COc4ccc(Cl)c(F)c4)(CC2)CC3O)nc1 (centres unmarked) [Compound 142, 4-[2-(4-chloro-3-fluorophenoxy)acetamido]-2-hydroxy-N-[(5-methylpyridin-2-yl)methyl]bicyclo[2.2.2]octane-1-carboxamide]	500 to 1000
O=C(COc1ccc(Cl)c(F)c1)NC12CCC(C(=O)NCc3cocn3)(CC1)C(O)C2 (centres unmarked) [Compound 115, 4-[2-(4-chloro-3-fluorophenoxy)acetamido]-2-hydroxy-N-[(1,3-oxazol-4-yl)methyl]bicyclo[2.2.2]octane-1-carboxamide]	> 2000
O=C(COc1ccc(Cl)c(F)c1)NC12CC(C(=O)NCCc3c[nH]cn3)(C1)C2 [Compound 188, 3-[2-(4-chloro-3-fluorophenoxy)acetamido]-N-[2-(1H-imidazol-4-yl)ethyl]bicyclo[1.1.1]pentane-1-carboxamide]	> 2000
CN(C)c1ccc(CNC(=O)C23CCC(NC(=O)COc4ccc(Cl)c(F)c4)(CC2)CC3O)cc1 (centres unmarked) [Compound 134, 4-[2-(4-chloro-3-fluorophenoxy)acetamido]-N-{[4-(dimethylamino)phenyl]methyl}-2-hydroxybicyclo[2.2.2]octane-1-carboxamide]	< 250
O=C(COc1ccc(Cl)cc1)NC12CC(C(=O)NCCOc3ccc(Cl)cc3)(C1)C2 [Compound 100, 3-[2-(4-chlorophenoxy)acetamido]-N-[2-(4-chlorophenoxy)ethyl]bicyclo[1.1.1]-pentane-1-carboxamide]	< 250
O=C(COc1ccc(Cl)c(F)c1)NC12CC(C(=O)NCc3ccc(C(F)(F)F)cc3)(C1)C2 [Compound 156, 3-[2-(4-chloro-3-fluorophenoxy)acetamido]-N-{[4-(trifluoromethyl)phenyl]methyl}bicyclo[1.1.1]pentane-1-carboxamide]	< 250

Structure (SMILES)	EC50 [nM]
O=C(COc1ccc(Cl)c(F)c1)NC12CC(C(=O)NCc3ccc(Cl)c(F)c3)(C1)C2 [Compound 193, 3-[2-(4-chloro-3-fluorophenoxy)acetamido]-N-[(4-chloro-3-fluorophenyl)methyl]bicyclo[1.1.1]pentane-1-carboxamide]	250 to 500
O=C(COc1ccc(Cl)c(F)c1)NC12CCC(C(=O)NCc3ccc(OC(F)F)cn3)(CC1)C(O)C2 (centres unmarked) [Compound 146, 4-[2-(4-chloro-3-fluorophenoxy)acetamido]-N-{[5-(difluoromethoxy)pyridin-2-yl]methyl}-2-hydroxybicyclo[2.2.2]octane-1-carboxamide]	< 250
O=C(COc1ccc(Cl)c(F)c1)NC12CC(C(=O)NCc3cccc(OC(F)(F)F)c3)(C1)C2 [Compound 161, 3-[2-(4-chloro-3-fluorophenoxy)acetamido]-N-{[3-(trifluoromethoxy)phenyl]methyl}bicyclo[1.1.1]pentane-1-carboxamide]	> 2000
COCc1ccc(CNC(=O)C23CC(NC(=O)COc4ccc(Cl)c(F)c4)(C2)C3)cc1 [Compound 229, 3-[2-(4-chloro-3-fluorophenoxy)acetamido]-N-{[4-(methoxymethyl)phenyl]methyl]bicyclo[1.1.1]pentane-1-carboxamide]	> 2000
Cc1cccc([C@H](C)NC(=O)C23CC(NC(=O)COc4ccc(Cl)c(F)c4)(C2)C3)c1 [Compound 187, 3-[2-(4-chloro-3-fluorophenoxy)acetamido]-N-[(1S)-1-(3-methylphenyl)ethyl]bicyclo[1.1.1]pentane-1-carboxamide]	> 2000
CCCc1cc(CNC(=O)C23CC(NC(=O)COc4ccc(Cl)c(F)c4)(C2)C3)on1 [Compound 247, 3-[2-(4-chloro-3-fluorophenoxy)acetamido]-N-[(3-propyl-1,2-oxazol-5-yl)methyl]bicyclo[1.1.1]pentane-1-carboxamide]	> 2000
COc1ccc(OC)c(CNC(=O)C23CC(NC(=O)COc4ccc(Cl)c(F)c4)(C2)C3)c1 [Compound 236, 3-[2-(4-chloro-3-fluorophenoxy)acetamido]-N-[(2,5-dimethoxyphenyl]methyl]bicyclo[1.1.1]pentane-1-carboxamide]	> 2000
O=C(COc1ccc(Cl)c(F)c1)NC12CCC(C(=O)NCc3ccc(Cl)cn3)(CC1)C(O)C2 (centres unmarked) [Compound 108, 4-[2-(4-chloro-3-fluorophenoxy)acetamido]-N-[(5-chloropyridin-2-yl)methyl]-2-hydroxybicyclo[2.2.2]octane-1-carboxamide]	< 250
O=C(COc1ccc(Cl)c(F)c1)NC12CC(C(=O)NCc3ccno3)(C1)C2 [Compound 222, 3-[2-(4-chloro-3-fluorophenoxy)acetamido]-N-[(1,2-oxazol-5-yl)methyl]bicyclo[1.1.1]pentane-1-carboxamide]	> 2000
O=C(COc1ccc(Cl)c(F)c1)NC12CCC(C(=O)NCc3ccccn3)(CC1)C(O)C2 (centres unmarked) [Compound 139]	1000 to 2000
Cc1cnc(CNC(=O)C23CCC(NC(=O)COc4ccc(Cl)c(F)c4)(CC2)CC3O)cn1 (centres unmarked) [Compound 119, 4-[2-(4-chloro-3-fluorophenoxy)acetamido]-2-hydroxy-N-[(5-methylpyrazin-2-yl)methyl]bicyclo[2.2.2]octane-1-carboxamide]	1000 to 2000
Cc1occc1CNC(=O)C12CC(NC(=O)COc3ccc(Cl)c(F)c3)(C1)C2 [Compound 244, 3-[2-(4-chloro-3-fluorophenoxy)acetamido]-N-[(2-methylfuran-3-yl)methyl]bicyclo[1.1.1]pentane-1-carboxamide]	> 2000
O=C(COc1ccc(Cl)c(F)c1)NC12CC(C(=O)NCc3cccc(Cl)c3)(C1)C2 [Compound 219, 3-[2-(4-chloro-3-fluorophenoxy)acetamido]-N-[(3-chlorophenyl)methyl]bicyclo[1.1.1]pentane-1-carboxamide]	> 2000
O=C(COc1ccc(Cl)c(F)c1)NC12CC(C(=O)NCc3cn4ccccc4n3)(C1)C2 [Compound 191, 3-[2-(4-chloro-3-fluorophenoxy)acetamido]-N-[(imidazo[1,2-a]pyridin-2-yl)methyl]bicyclo[1.1.1]pentane-1-carboxamide]	1000 to 2000
O=C(COc1ccc(F)cc1)NC12CCC(C(=O)NCc3ccc(C(F)(F)F)cn3)(CC1)C(O)C2 (centres unmarked) [Compound 122, 4-[2-(4-fluorophenoxy)acetamido]-2-hydroxy-N-{[5-(trifluoromethyl)pyridin-2-yl]methyl}bicyclo[2.2.2]octane-1-carboxamide]	< 250
Cn1ccc(CNC(=O)C23CC(NC(=O)COc4ccc(Cl)c(F)c4)(C2)C3)n1 [Compound 179, 3-[2-(4-chloro-3-fluorophenoxy)acetamido]-N-[(1-methyl-1H-pyrazol-3-yl)methyl]bicyclo[1.1.1]pentane-1-carboxamide]	> 2000
